Laboratory results taken from patent US4820695A, “C-20-dihydro-deoxy-(cyclic amino)-derivatives of macrolide antibiotics” (priority 1987, dated 1989).
≈ marks a conversion by molar mass, not a printed value. Like-named read-outs stand apart in the source and are kept apart here. Blank lines part the entries; values can stand above or below the compound they belong to.

Key:
Staphyloccus aureus X1.1 = test: MIC, standard agar-dilution assay (Table IX); format: cell-based, Staphylococcus aureus; details: Staphylococcus aureus, read-out: MIC
[1] = test system: Staphylococcus aureus V41; test: MIC, standard agar-dilution assay (Table IX); format: cell-based; details: Staphylococcus aureus V41, Penicillin-resistant strain, read-out: MIC
[2] = test system: Staphylococcus aureus X400; test: MIC, standard agar-dilution assay (Table IX); format: cell-based; details: Staphylococcus aureus X400, Methicillin-resistant strain, read-out: MIC
[3] = test system: Staphylococcus aureus S13E; test: MIC, standard agar-dilution assay (Table IX); format: cell-based; details: Staphylococcus aureus, S13E
[4] = test system: Staphylococcus epidermidis EPI1; test: MIC, standard agar-dilution assay (Table IX); format: cell-based; details: Staphylococcus epidermidis EPI1; agar-dilution; read-out: MIC
[5] = test system: Staphylococcus epidermidis 222; test: MIC, standard agar-dilution assay (Table IX); format: cell-based; details: read-out: MIC
[6] = test system: Streptococcus pyogenes C203; test: MIC, standard agar-dilution assay (Table IX); format: cell-based; details: read-out: MIC
[7] = test system: Streptococcus pneumoniae Park I; test: MIC, standard agar-dilution assay (Table IX); format: cell-based; details: Streptococcus pneumoniae Park I; agar-dilution; read-out: MIC
[8] = test system: Streptococcus Group D X66; test: MIC, standard agar-dilution assay (Table IX); format: cell-based; details: read-out: MIC
[9] = test system: Haemophilus influenzae C.L.; test: MIC, standard agar-dilution assay (Table IX); format: cell-based; details: Ampicillin-sensitive strain, read-out: MIC
[10] = test system: Haemophilus influenzae 76; test: MIC, standard agar-dilution assay (Table IX); format: cell-based; details: Haemophilus influenzae 76, Ampicillin-resistant strain, read-out: MIC
Escherichia coli N10 = test: MIC, standard agar-dilution assay (Table IX); format: cell-based; details: read-out: MIC
Escherichia coli EC14 = test: MIC, standard agar-dilution assay (Table IX); format: cell-based; details: read-out: MIC
Escherichia coli TEM = test: MIC, standard agar-dilution assay (Table IX); format: cell-based; details: read-out: MIC
Klebsiella X26 = test: MIC, standard agar-dilution assay (Table IX); format: cell-based; details: read-out: MIC
Group D strain 9960 = test: MIC, standard agar-dilution assay (Table IX); format: cell-based, Streptococcus Group D; details: tested using predecessor Group D strain 9960
[11] = test system: Mycoplasma gallisepticum 29C; test: MIC, broth-dilution microtiter test (Table X); format: cell-based; details: Mycoplasmoides gallisepticum, read-out: MIC
Source text: (§1) The MIC's in Table X were obtained using conventional broth-dilution microtiter tests.

Mycoplasma hyorhinis 29E = test: MIC, broth-dilution microtiter test (Table X); format: cell-based; details: read-out: MIC
Source text: as §1

Mycoplasma synoviae 40A = test: MIC, broth-dilution microtiter test (Table X); format: cell-based; details: Mycoplasmopsis synoviae, read-out: MIC
Source text: as §1

[12] = test system: Pasteurella hemolytica 22C; test: MIC, broth-dilution microtiter test (Table X); format: cell-based; details: read-out: MIC
Source text: as §1

[13] = test system: Pasteurella multocida 17E; test: MIC, broth-dilution microtiter test (Table X); format: cell-based; details: Bovine isolate, read-out: MIC
Source text: as §1

[14] = test system: Pasteurella multocida 60A; test: MIC, broth-dilution microtiter test (Table X); format: cell-based; details: Avian isolate, read-out: MIC
Source text: as §1

Staphylococcus aureus = test: MIC, broth-dilution microtiter test (Table X); format: cell-based; details: read-out: MIC
Source text: as §1

Streptococcus sp. 19F = test: MIC, broth-dilution microtiter test (Table X); format: cell-based; details: read-out: MIC
Source text: as §1

[15] = test system: Streptococcus pyogenes C203; test: ED50 in mice experimentally infected with S. pyogenes C203 (Table XI); format: in vivo; details: Streptococcus pyogenes, doses given 1 and 4 hours postinfection, read-out: ED50
In short: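 Mice infected with S. pyogenes C203 received two doses of compound, 1 and 4 h post-infection. ED50 is the dose in mg/kg (per dose, ×2) protecting 50% of animals.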

Pasteurella multocida [16] = test: Pasteurella infection in one-day-old chicks, subcutaneous administration (Table XII); format: in vivo; details: Administered subcutaneously, 30 mg/kg × 2, 1 and 4 hours post-challenge
In short: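 One-day-old chicks were challenged subcutaneously with 0.1 ml of a 10^-4 dilution of a 20-h tryptose broth culture of avian P. multocida. Compounds were then given by subcutaneous injection at 30 mg/kg, at 1 and 4 hours post-challenge.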

[17] = Titratable groups in 66% aqueous DMF (Tables XIV-XVI); format: physicochemical
Source text: ^c Run in 66% aqueous DMF
^d Run in 66% aqueous DMF

[18] = test system: Streptococcus Group D 2041; test: MIC, standard agar-dilution assay (Table IX); format: cell-based; details: GROUPD2041, read-out: MIC
[19] = test system: Mycoplasma hyopneumoniae S5972; test: MIC, broth-dilution microtiter test (Table X); format: cell-based; details: Mesomycoplasma hyopneumoniae, read-out: MIC
Source text: as §1

[20] = test system: Staphylococcus aureus 19C; test: MIC, broth-dilution microtiter test (Table X); format: cell-based
Source text: as §1

Pasteurella multocida [21] = test: Pasteurella infection in one-day-old chicks, medicated drinking water (Table XIII); format: in vivo; details: Administered in the available drinking water at 2 g/gal
In short: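 One-day-old chicks were challenged subcutaneously with 0.1 ml of a 10^-4 dilution of a 20-hour tryptose broth culture of avian P. multocida. Compound was given in drinking water at 2 g/gal, available from 4 to 20 hours before challenge and throughout the 3-day test period.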

[22] = Titratable groups (first value)

Structure (SMILES): CCC1OC(=O)CC(O)C(C)C(OC2OC(C)C(O)C(N(C)C)C2O)C(CCN2CCCCCCC2)CC(C)C(=O)C=CC(C)=CC1COC1OC(C)C(O)C(O)C1OC (centres unmarked) [Compound L5, 20-DH-DO-20-(octahydroazocin-1-yl)lactenocin]
MIC (Staphyloccus aureus X1.1): 1 µg/mL (≈ 1.17 µM)
MIC [1]: 1 µg/mL (≈ 1.17 µM)
MIC [2]: 2 µg/mL (≈ 2.34 µM)
MIC [3]: 1 µg/mL (≈ 1.17 µM)
MIC [4]: 1 µg/mL (≈ 1.17 µM)
MIC [5]: 0.5 µg/mL (≈ 0.585 µM)
MIC [6]: 0.5 µg/mL (≈ 0.585 µM)
MIC [7]: 0.5 µg/mL (≈ 0.585 µM)
MIC [8]: 16 µg/mL (≈ 18.7 µM)
MIC [9]: 32 µg/mL (≈ 37.4 µM)
MIC [10]: 6 µg/mL (≈ 7.02 µM)
MIC (Escherichia coli N10): > 128 µg/mL
MIC (Escherichia coli EC14): > 128 µg/mL
MIC (Escherichia coli TEM): 16 µg/mL (≈ 18.7 µM)
MIC (Klebsiella X26): 16 µg/mL (≈ 18.7 µM)
MIC (Group D strain 9960): 16 µg/mL (≈ 18.7 µM)
MIC [11]: 6.25 µg/mL (≈ 7.31 µM)
MIC (Mycoplasma hyorhinis 29E): 50 µg/mL (≈ 58.5 µM)
MIC (Mycoplasma synoviae 40A): 3.12 µg/mL (≈ 3.65 µM)
MIC [12]: 12.5 µg/mL (≈ 14.6 µM)
MIC [13]: 6.25 µg/mL (≈ 7.31 µM)
MIC [14]: 12.5 µg/mL (≈ 14.6 µM)
MIC (Staphylococcus aureus): 1.56 µg/mL (≈ 1.82 µM)
MIC (Streptococcus sp. 19F): 0.78 µg/mL (≈ 0.912 µM)
ED50 ([15]; C203, Oral): 100 mg/kg
ED50 ([15]; C203, sc, Subcutaneous): 1.8 mg/kg
Number of Deaths/Number Treated (Pasteurella multocida [16]): 0/10
pKa ([17]; Titratable groups): 9.3
pKa [17, 22]: 7.8

Structure (SMILES): CCC1OC(=O)CC(O)C(C)C(OC2OC(C)C(O)C(N(C)C)C2O)C(CCN2CCc3ccccc32)CC(C)C(=O)C=CC(C)=CC1COC1OC(C)C(O)C(OC)C1OC (centres unmarked) [Compound D42]
MIC (Staphyloccus aureus X1.1): 5 µg/mL (≈ 5.71 µM)
MIC [1]: 0.25 µg/mL (≈ 0.286 µM)
MIC [2]: 0.5 µg/mL (≈ 0.571 µM)
MIC [3]: 0.5 µg/mL (≈ 0.571 µM)
MIC [4]: 0.5 µg/mL (≈ 0.571 µM)
MIC [5]: 0.25 µg/mL (≈ 0.286 µM)
MIC [6]: 0.5 µg/mL (≈ 0.571 µM)
MIC [7]: 0.25 µg/mL (≈ 0.286 µM)
MIC [8]: 2 µg/mL (≈ 2.29 µM)
MIC [18]: 2 µg/mL (≈ 2.29 µM)
MIC [9]: 16 µg/mL (≈ 18.3 µM)
MIC [10]: 8 µg/mL (≈ 9.14 µM)
MIC (Escherichia coli N10): > 128 µg/mL
MIC (Escherichia coli EC14): > 128 µg/mL
MIC (Escherichia coli TEM): > 128 µg/mL
MIC (Klebsiella X26): 64 µg/mL (≈ 73.1 µM)
MIC [11]: 0.097 µg/mL (≈ 0.111 µM)
MIC [19]: 0.097 µg/mL (≈ 0.111 µM)
MIC (Mycoplasma hyorhinis 29E): 3.12 µg/mL (≈ 3.57 µM)
MIC (Mycoplasma synoviae 40A): 0.195 µg/mL (≈ 0.223 µM)
MIC [12]: 50 µg/mL (≈ 57.1 µM)
MIC [13]: 12.5 µg/mL (≈ 14.3 µM)
MIC [14]: 25 µg/mL (≈ 28.6 µM)
MIC [20]: 0.78 µg/mL (≈ 0.891 µM)
MIC (Streptococcus sp. 19F): 0.78 µg/mL (≈ 0.891 µM)

MIC [11]: 0.195 µg/mL (≈ 0.214 µM)
MIC [19]: 0.78 µg/mL (≈ 0.858 µM)
MIC (Mycoplasma hyorhinis 29E): 25 µg/mL (≈ 27.5 µM)
MIC (Mycoplasma synoviae 40A): < 0.048 µg/mL
MIC [13]: 6.25 µg/mL (≈ 6.87 µM)
MIC [14]: 6.25 µg/mL (≈ 6.87 µM)
MIC [20]: 1.56 µg/mL (≈ 1.72 µM)
MIC (Streptococcus sp. 19F): 1.56 µg/mL (≈ 1.72 µM)
Structure (SMILES): CCC1OC(=O)CC(O)C(C)C(OC2OC(C)C(O)C(N(C)C)C2O)C(CCN2CCC3(CCCCC3)CC2)CC(C)C(=O)C=CC(C)=CC1COC1OC(C)C(O)C(OC)C1OC (centres unmarked) [Compound D43]
MIC [12]: 6.25 µg/mL (≈ 6.87 µM)
ED50 ([15]; C203, Oral): 8 mg/kg
ED50 ([15]; C203, sc, Subcutaneous): 1.34 mg/kg

Structure (SMILES): CCC1OC(=O)CC(O)C(C)C(OC2OC(C)C(O)C(N(C)C)C2O)C(CCN2CCCC23CCCCC3)CC(C)C(=O)C=CC(C)=CC1COC1OC(C)C(O)C(OC)C1OC (centres unmarked) [Compound D19, 20-DH-DO-20-[1-Azaspiro[4.5]decan-1-yl]desmycosin]
MIC (Staphyloccus aureus X1.1): 1 µg/mL (≈ 1.12 µM)
MIC [1]: 1 µg/mL (≈ 1.12 µM)
MIC [2]: 1 µg/mL (≈ 1.12 µM)
MIC [3]: 1 µg/mL (≈ 1.12 µM)
MIC [4]: 1 µg/mL (≈ 1.12 µM)
MIC [5]: 0.25 µg/mL (≈ 0.279 µM)
MIC [6]: 0.5 µg/mL (≈ 0.559 µM)
MIC [7]: 0.25 µg/mL (≈ 0.279 µM)
MIC [8]: 16 µg/mL (≈ 17.9 µM)
MIC [18]: 16 µg/mL (≈ 17.9 µM)
MIC [9]: 16 µg/mL (≈ 17.9 µM)
MIC [10]: 16 µg/mL (≈ 17.9 µM)
MIC (Escherichia coli N10): 128 µg/mL (≈ 143 µM)
MIC (Escherichia coli EC14): 128 µg/mL (≈ 143 µM)
MIC (Escherichia coli TEM): 32 µg/mL (≈ 35.7 µM)
MIC (Klebsiella X26): 32 µg/mL (≈ 35.7 µM)
MIC [11]: 1.56 µg/mL (≈ 1.74 µM)
MIC [19]: 3.12 µg/mL (≈ 3.49 µM)
MIC (Mycoplasma hyorhinis 29E): > 50 µg/mL
MIC (Mycoplasma synoviae 40A): 0.39 µg/mL (≈ 0.436 µM)
MIC [12]: 3.12 µg/mL (≈ 3.49 µM)
MIC [13]: 3.12 µg/mL (≈ 3.49 µM)
MIC [14]: 3.12 µg/mL (≈ 3.49 µM)
MIC (Staphylococcus aureus): 0.78 µg/mL (≈ 0.871 µM)
MIC (Streptococcus sp. 19F): 3.12 µg/mL (≈ 3.49 µM)
ED50 ([15]; C203, Oral): 46 mg/kg
ED50 ([15]; C203, sc, Subcutaneous): 2.9 mg/kg
Number of Deaths/Number Treated (Pasteurella multocida [16]): 0/10
Number of Deaths/Number Treated (Pasteurella multocida [21]): 3/10
pKa ([17]; Titratable groups): 9.8
pKa [17, 22]: 7.9

MIC [11]: 1.56 µg/mL (≈ 1.77 µM)
MIC [19]: 0.39 µg/mL (≈ 0.443 µM)
MIC (Mycoplasma hyorhinis 29E): 50 µg/mL (≈ 56.7 µM)
MIC (Mycoplasma synoviae 40A): 0.097 µg/mL (≈ 0.11 µM)
MIC [13]: 12.5 µg/mL (≈ 14.2 µM)
MIC [14]: 12.5 µg/mL (≈ 14.2 µM)
MIC [20]: 3.12 µg/mL (≈ 3.54 µM)
MIC (Streptococcus sp. 19F): 1.56 µg/mL (≈ 1.77 µM)
Structure (SMILES): CCC1OC(=O)CC(O)C(C)C(OC2OC(C)C(O)C(N(C)C)C2O)C(CCN2CCC3CCCCC32)CC(C)C(=O)C=CC(C)=CC1COC1OC(C)C(O)C(OC)C1OC (centres unmarked) [Compound D44]
MIC [12]: 12.5 µg/mL (≈ 14.2 µM)
ED50 ([15]; C203, Oral): 37.9 mg/kg
ED50 ([15]; C203, sc, Subcutaneous): 0.69 mg/kg
